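The compound was tested at five concentrations on cells cultured in 96-well plates, with a 48-hour exposure period. GI50: concentration for 50% inhibition of growth. Definition used: TGI = concentration required for complete inhibition of growth.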
What was measured:
Assay in all cases: DTP human tumour cell line panel, 48 h
786-0 renal = tested on: 786-0 renal
A498 renal = tested on: A498 renal
A549 NSCLC = tested on: A549 NSCLC
ACHN renal = tested on: ACHN renal
BT-549 breast = tested on: BT-549 breast
CAKI-1 renal = tested on: CAKI-1 renal
CCRF-CEM leukemia = tested on: CCRF-CEM leukemia
COLO 205 colon = tested on: COLO 205 colon
DU-145 prostate = tested on: DU-145 prostate
HCC-2998 colon = tested on: HCC-2998 colon
HCT-116 colon = tested on: HCT-116 colon
HCT-15 colon = tested on: HCT-15 colon
HL-60(TB) leukemia = tested on: HL-60(TB) leukemia
HOP-62 NSCLC = tested on: HOP-62 NSCLC
HOP-92 NSCLC = tested on: HOP-92 NSCLC
HS 578T breast = tested on: HS 578T breast
HT29 colon = tested on: HT29 colon
IGROV1 ovarian = tested on: IGROV1 ovarian
K-562 leukemia = tested on: K-562 leukemia
KM12 colon = tested on: KM12 colon
LOX IMVI melanoma = tested on: LOX IMVI melanoma
M14 melanoma = tested on: M14 melanoma
MALME-3M melanoma = tested on: MALME-3M melanoma
MCF7 breast = tested on: MCF7 breast
MDA-MB-231 breast = tested on: MDA-MB-231 breast
MDA-MB-435 = tested on: MDA-MB-435
MOLT-4 leukemia = tested on: MOLT-4 leukemia
NCI-H226 lung = tested on: NCI-H226 lung
NCI-H23 lung = tested on: NCI-H23 lung
NCI-H460 lung = tested on: NCI-H460 lung
NCI-H522 lung = tested on: NCI-H522 lung
NCI/ADR-RES ovarian = tested on: NCI/ADR-RES ovarian
OVCAR-3 ovarian = tested on: OVCAR-3 ovarian
OVCAR-5 ovarian = tested on: OVCAR-5 ovarian
OVCAR-8 ovarian = tested on: OVCAR-8 ovarian
PC-3 prostate = tested on: PC-3 prostate
RPMI-8226 leukemia = tested on: RPMI-8226 leukemia
RXF 393 renal = tested on: RXF 393 renal
SF-268 CNS = tested on: SF-268 CNS
SF-295 CNS = tested on: SF-295 CNS
SF-539 CNS = tested on: SF-539 CNS
SK-MEL-2 melanoma = tested on: SK-MEL-2 melanoma
SK-MEL-28 melanoma = tested on: SK-MEL-28 melanoma
SK-MEL-5 melanoma = tested on: SK-MEL-5 melanoma
SK-OV-3 ovarian = tested on: SK-OV-3 ovarian
SN12C renal = tested on: SN12C renal
SNB-19 CNS = tested on: SNB-19 CNS
SNB-75 CNS = tested on: SNB-75 CNS
SR leukemia = tested on: SR leukemia
SW-620 colon = tested on: SW-620 colon
T-47D breast = tested on: T-47D breast
TK-10 renal = tested on: TK-10 renal
U251 CNS = tested on: U251 CNS
UACC-257 melanoma = tested on: UACC-257 melanoma
UACC-62 melanoma = tested on: UACC-62 melanoma
UO-31 renal = tested on: UO-31 renal

SMILES: CC(=O)Nc1ccc(S(=O)(=O)N2C(=O)CCC2C(=O)Nc2ccc(Br)cc2)cc1 (configuration not stated)
- GI50 (786-0 renal): 2.2 µM
- TGI (786-0 renal): 7.27 µM
- GI50 (A498 renal): 0.435 µM
- TGI (A498 renal): 4.71 µM
- GI50 (A549 NSCLC): 1.6 µM
- TGI (A549 NSCLC): 13.4 µM
- GI50 (ACHN renal): 2.13 µM
- TGI (ACHN renal): 12.2 µM
- GI50 (BT-549 breast): 1.79 µM
- TGI (BT-549 breast): 8.38 µM
- GI50 (CAKI-1 renal): 4.37 µM
- TGI (CAKI-1 renal): 17.7 µM
- GI50 (CCRF-CEM leukemia): 1.49 µM
- TGI (CCRF-CEM leukemia): 11 µM
- GI50 (COLO 205 colon): 3.01 µM
- TGI (COLO 205 colon): 11.7 µM
- GI50 (DU-145 prostate): 3.25 µM
- TGI (DU-145 prostate): 15.8 µM
- GI50 (HCC-2998 colon): 3.67 µM
- TGI (HCC-2998 colon): 22.1 µM
- GI50 (HCT-116 colon): 1.74 µM
- TGI (HCT-116 colon): > 100 µM
- GI50 (HCT-15 colon): 1.72 µM
- TGI (HCT-15 colon): 13 µM
- GI50 (HL-60(TB) leukemia): 3.1 µM
- TGI (HL-60(TB) leukemia): 19 µM
- GI50 (HOP-62 NSCLC): 2.4 µM
- TGI (HOP-62 NSCLC): 11.3 µM
- GI50 (HOP-92 NSCLC): 1.13 µM
- TGI (HOP-92 NSCLC): 5.25 µM
- GI50 (HS 578T breast): 3.05 µM
- TGI (HS 578T breast): 22.5 µM
- GI50 (HT29 colon): 2.76 µM
- TGI (HT29 colon): 14.7 µM
- GI50 (IGROV1 ovarian): 2.28 µM
- TGI (IGROV1 ovarian): 10.9 µM
- GI50 (K-562 leukemia): 1.95 µM
- TGI (K-562 leukemia): 10.7 µM
- GI50 (KM12 colon): 1.82 µM
- TGI (KM12 colon): 13.7 µM
- GI50 (LOX IMVI melanoma): 0.972 µM
- TGI (LOX IMVI melanoma): 7.39 µM
- GI50 (M14 melanoma): 2.92 µM
- TGI (M14 melanoma): 32.8 µM
- GI50 (MALME-3M melanoma): 2.64 µM
- TGI (MALME-3M melanoma): 9.17 µM
- GI50 (MCF7 breast): 1.48 µM
- TGI (MCF7 breast): 11 µM
- GI50 (MDA-MB-231 breast): 1.29 µM
- TGI (MDA-MB-231 breast): 6.94 µM
- GI50 (MDA-MB-435): 2.72 µM
- TGI (MDA-MB-435): 14.3 µM
- GI50 (MOLT-4 leukemia): 2.2 µM
- TGI (MOLT-4 leukemia): 10.3 µM
- GI50 (NCI-H226 lung): 2.26 µM
- TGI (NCI-H226 lung): 13.2 µM
- GI50 (NCI-H23 lung): 1.83 µM
- TGI (NCI-H23 lung): 16.6 µM
- GI50 (NCI-H460 lung): 2.63 µM
- TGI (NCI-H460 lung): 24.5 µM
- GI50 (NCI-H522 lung): 1.06 µM
- TGI (NCI-H522 lung): 3.6 µM
- GI50 (NCI/ADR-RES ovarian): 2.47 µM
- TGI (NCI/ADR-RES ovarian): > 100 µM
- GI50 (OVCAR-3 ovarian): 2.03 µM
- TGI (OVCAR-3 ovarian): 7.47 µM
- GI50 (OVCAR-5 ovarian): 4.86 µM
- TGI (OVCAR-5 ovarian): 21.7 µM
- GI50 (OVCAR-8 ovarian): 2.6 µM
- TGI (OVCAR-8 ovarian): 11.9 µM
- GI50 (PC-3 prostate): 0.984 µM
- TGI (PC-3 prostate): 12.1 µM
- GI50 (RPMI-8226 leukemia): 0.806 µM
- TGI (RPMI-8226 leukemia): 4.46 µM
- GI50 (RXF 393 renal): 2.31 µM
- TGI (RXF 393 renal): 6.28 µM
- GI50 (SF-268 CNS): 2.76 µM
- TGI (SF-268 CNS): 21.9 µM
- GI50 (SF-295 CNS): 2.11 µM
- TGI (SF-295 CNS): 12.1 µM
- GI50 (SF-539 CNS): 2.45 µM
- TGI (SF-539 CNS): 6.78 µM
- GI50 (SK-MEL-2 melanoma): 4.05 µM
- TGI (SK-MEL-2 melanoma): 17.8 µM
- GI50 (SK-MEL-28 melanoma): 3.49 µM
- TGI (SK-MEL-28 melanoma): 20.9 µM
- GI50 (SK-MEL-5 melanoma): 1.56 µM
- TGI (SK-MEL-5 melanoma): 4.87 µM
- GI50 (SK-OV-3 ovarian): 3.58 µM
- TGI (SK-OV-3 ovarian): 16.1 µM
- GI50 (SN12C renal): 2.79 µM
- TGI (SN12C renal): 36 µM
- GI50 (SNB-19 CNS): 2.38 µM
- TGI (SNB-19 CNS): 20.2 µM
- GI50 (SNB-75 CNS): 1.81 µM
- TGI (SNB-75 CNS): 6.24 µM
- GI50 (SR leukemia): 1.41 µM
- TGI (SR leukemia): 5.38 µM
- GI50 (SW-620 colon): 3.19 µM
- TGI (SW-620 colon): 27.6 µM
- GI50 (T-47D breast): 0.532 µM
- TGI (T-47D breast): 5.93 µM
- GI50 (TK-10 renal): 4.49 µM
- TGI (TK-10 renal): 15.4 µM
- GI50 (U251 CNS): 1.89 µM
- TGI (U251 CNS): 11.3 µM
- GI50 (UACC-257 melanoma): 2.1 µM
- TGI (UACC-257 melanoma): 9.5 µM
- GI50 (UACC-62 melanoma): 0.648 µM
- TGI (UACC-62 melanoma): 4.54 µM
- GI50 (UO-31 renal): 1.38 µM
- TGI (UO-31 renal): 8.21 µM

From PubChem BioAssay (NCI)
